Experimental data from patent publication US20250179103A1, “6-OXODECAHYDROPYRROLO[1,2-A][1,5]DIAZOCINE AND 6-OXODECAHYDRO-4H-PYRROLO[2,1-D][1,5]THIAZOCINE DERIVATIVES AS STAT3 AND STAT6 MODULATORS FOR THE TREATMENT OF CANCER AND INFLAMMATORY CONDITIONS” (Recludix Pharma, Inc., priority 2022, published 2025).
pIC50: −log10 of the molar value.

Legend:
[1] = tested on: pY641-STAT6 in Peripheral Blood Mononuclear Cells (PBMC); experiment: MSD-pSTAT-PBMC Assay (pSTAT6, IL-4 stimulated); format: cell-based, Human; settings: Homo sapiens, compound 3 hrs, then 1 ng/mL IL-4 for 10 min
Source text: Cryopreserved Peripheral Blood Mononuclear Cells (PBMC) are from AllCells. Recombinant Human IL-4 and IL-6 are from Peprotech. Mouse monoclonal anti-STAT3 antibody, rabbit monoclonal anti-pY705-STAT3 antibody, rabbit monoclonal Anti-pY641-STAT6 antibody, and lysis buffer are from Cell Signaling Technology (CST). Mouse monoclonal anti-STAT6 antibody is from BioLegend. Assay plates, blocker, and anti-rabbit secondary antibody are from Meso Scale Discovery (MSD).
Cryopreserved PBMCs were thawed out and allowed to recover overnight in IMDM+10% heat-inactivated FBS prior to plating 50,000 (STAT3) or 25,000 (STAT6) cells per well in 96-well U-bottom tissue culture plates. Cells were treated with compound for 3 hrs, then stimulated with 10 ng/mL IL-6 (STAT3) or 1 ng/mL IL-4 (STAT6) for 10 min. Cells were then spun down and washed with ice-cold PBS prior to lysing the cell pellet with 1× lysis buffer (CST) with 1×HALT protease and phosphatase inhibitor cocktail (Thermo). Lysates were transferred to and incubated overnight at 4° C. with shaking in QuickPlex 96-well high bind assay plates (MSD) pre-coated overnight with 30 μL per well of 0.6 μg/mL mouse monoclonal anti-STAT3 antibody (STAT3) or 2 μg/mL mouse monoclonal anti-STAT6 antibody (STAT6) in 1×PBS, and pre-blocked for 1 hour with 3% Blocker-A (MSD). Captured protein in the assay plates were then washed and probed with 25 μL per well of 0.25 μg/ml rabbit monoclonal anti-pY705-STAT3 antibody (STAT3) or […] rabbit monoclonal Anti-pY641-STAT6 antibody (STAT6) in 1% Blocker-A for 1 hour at room temperature with shaking, then washed and probed with 25 ul per well of 1 ug/ml Sulfo-TAG Labeled Goat Anti-Rabbit Antibody (MSD) in 1% Blocker-A for 1 hour at room temperature with shaking. Assay plates were then washed and 150 μL of 1× Read Buffer-T (MSD) was added to each well prior to reading on an SQ120 MSD Plate Reader. Assay signal from each sample was subtracted by the signal from unstimulated control wells and normalized to DMSO control wells. IC50 values were calculated using Graph Pad Prism Dose-Response Nonlinear Regression with variable slope. For both pSTAT3 and pSTAT6 A=≤100 nM; B=>100-1000 nM; C=>1000-3000 nM; and D=>3 μM.

[2] = target: T1, Recombinant STAT3 protein (STAT3(G127-I722)) (Homo sapiens, UniProt P40763); experiment: STAT3 Fluorescence Polarization (FP) Assay; format: binding; settings: STAT3(G127-I722) 25 nM, probe 5-FAM-GpYLPQTV-NH2 2 nM, 45-minute incubation
T1 construct: Recombinant STAT3 protein (STAT3(G127-I722))
Procedure, shortened: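 Fluorescence polarization after a 45-min room-temperature incubation measured compound displacement of a 2 nM fluorescein-labelled phosphotyrosine peptide (5-FAM-GpYLPQTV-NH2) from 25 nM recombinant STAT3(G127-I722). Buffer was 10 mM HEPES pH 7.4 with 1% DMSO final. IC50s were fitted by nonlinear regression of mP against log concentration.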

[3] = target: T2, Recombinant STAT6 protein (STAT6(W123-T658)) (Homo sapiens, UniProt P42226); experiment: STAT6 Fluorescence Polarization (FP) Assay; format: binding; settings: STAT6(W123-T658) 250 nM, probe 5-FAM-ApYKPFQDLI-NH2 2 nM, 45-minute incubation
T2 construct: Recombinant STAT6 protein (STAT6(W123-T658))
T2 sequence (P42226 123-658): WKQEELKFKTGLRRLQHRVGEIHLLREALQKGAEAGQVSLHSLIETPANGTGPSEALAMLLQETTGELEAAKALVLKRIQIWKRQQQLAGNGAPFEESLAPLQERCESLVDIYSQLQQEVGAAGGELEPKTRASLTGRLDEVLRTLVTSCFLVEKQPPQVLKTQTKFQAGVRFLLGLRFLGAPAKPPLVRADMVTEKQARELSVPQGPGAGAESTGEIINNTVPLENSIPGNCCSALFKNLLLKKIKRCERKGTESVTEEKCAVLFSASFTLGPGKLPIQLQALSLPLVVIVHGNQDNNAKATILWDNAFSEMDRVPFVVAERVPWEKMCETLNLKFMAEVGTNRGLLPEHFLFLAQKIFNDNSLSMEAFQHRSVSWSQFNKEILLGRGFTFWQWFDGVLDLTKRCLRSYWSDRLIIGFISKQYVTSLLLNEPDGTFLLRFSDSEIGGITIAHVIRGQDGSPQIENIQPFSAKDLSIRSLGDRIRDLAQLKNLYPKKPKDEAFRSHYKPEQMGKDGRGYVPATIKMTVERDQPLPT
Procedure, shortened: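 Displacement of a fluorescent phosphotyrosine peptide (5-FAM-ApYKPFQDLI-NH2, 2 nM) from STAT6(W123-T658) (250 nM), 1% DMSO, pH 7.4 HEPES buffer. After 45 min at room temperature, polarization (mP) was plotted versus log compound concentration and fitted by nonlinear regression to give IC50.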

T1 sequence (P40763 127-722): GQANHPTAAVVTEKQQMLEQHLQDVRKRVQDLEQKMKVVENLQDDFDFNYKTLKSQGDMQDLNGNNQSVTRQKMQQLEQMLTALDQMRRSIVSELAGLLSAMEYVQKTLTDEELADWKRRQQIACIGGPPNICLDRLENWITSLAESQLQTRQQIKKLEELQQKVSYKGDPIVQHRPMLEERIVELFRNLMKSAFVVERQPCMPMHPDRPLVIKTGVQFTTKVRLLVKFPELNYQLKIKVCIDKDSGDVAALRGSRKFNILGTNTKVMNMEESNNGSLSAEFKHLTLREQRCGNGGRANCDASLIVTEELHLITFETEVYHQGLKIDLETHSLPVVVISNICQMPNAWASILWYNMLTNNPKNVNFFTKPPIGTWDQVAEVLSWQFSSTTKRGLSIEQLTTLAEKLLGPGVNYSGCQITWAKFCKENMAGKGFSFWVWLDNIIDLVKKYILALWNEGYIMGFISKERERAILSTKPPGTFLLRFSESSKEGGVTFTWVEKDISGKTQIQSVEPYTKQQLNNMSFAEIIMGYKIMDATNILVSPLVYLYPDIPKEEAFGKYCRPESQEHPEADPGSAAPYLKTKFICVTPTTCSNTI

| Molecule | pIC50 [1] | pIC50 [2] | pIC50 [3] |
| --- | --- | --- | --- |
| CC(=O)N1CC[C@H]2CC[C@@H](C(=O)N3C[C@H](c4cc[nH]c(=O)c4)[C@@H](C#N)C3)N2C(=O)[C@@H](NC(=O)c2ccc3ccc(C(F)(F)P(=O)(OCCSC(=O)CC(C)C)OCOC(=O)OC(C)C)cc3c2)C1 (single isomer, unassigned) [Compound 302, S-(2-((((7-(((5S,8S, 10aR)-3-acetyl-8-((3R,4S or 3S,4R)-3-cyano-4-(2-oxo-1,2-dihydro-pyridin-4-yl)pyrrolidine-1-carbonyl)-6-oxodecahydro-pyrrolo[1,2-a][1,5]diazocin-5-yl)carbamoyl)naphthalen-2-yl)difluoro-methyl)(((iso-propoxy-carbonyl)oxy)methoxy)phos-phoryl)oxy)ethyl)3-methylbutane-thioate] | 6.00 to 7.00 | – | – |
| Cc1ccc2onc(C(=O)N3CC[C@H]4CC[C@@H](C(=O)N5C[C@@H](C#N)[C@H](c6ccccc6)C5)N4C(=O)[C@@H](NC(=O)c4ccc5ccc(C(F)(F)P(=O)(OCCSC(=O)CC(C)C)OCCSC(=O)CC(C)C)cc5c4)C3)c2c1 (single isomer, unassigned) [Compound 433] | ≥ 7.00 | – | – |
| O=C(N[C@H]1CS(=O)(=O)CC[C@H]2CC[C@@H](C(=O)N3CC(c4cccnc4)C3)N2C1=O)c1cc2cc(C(F)(F)P(=O)(O)O)ccc2s1 [Compound 404, ((2-(((5R,8S,10aR)-3,3-dioxido-6-oxo-8-(3-(pyridin-3-yl)azetidine-1-carbonyl)octahydro-4H-pyrrolo[2,1-d][1,5]thiazocin-5-yl)carbamoyl)benzo[b]thiophen-5-yl)difluoromethyl) phosphonic acid] | – | ≥ 7.00 | 4.52 to 5.52 |
| O=C(N[C@H]1CSCC[C@H]2CC[C@@H](C(=O)N3CC(c4cccnc4)C3)N2C1=O)c1cc2cc(C(F)(F)P(=O)(O)O)ccc2s1 [Compound 405, (difluoro(2-(((5R,8S, 10aR)-6-oxo-8-(3-(pyridin-3-yl)azetidine-1-carbonyl)octahydro-4H-pyrrolo[2,1-d][1,5]thiazocin-5-yl)carbamoyl)benzo[b]thiophen-5-yl)methyl) phosphonic acid] | – | ≥ 7.00 | 4.52 to 5.52 |
| CCCOC(=O)[C@H](C)NP(=O)(Oc1ccccc1)C(F)c1ccc2ccc(C(=O)N[C@H]3CN(C(C)=O)CC[C@H]4CC[C@@H](C(=O)N5CC(c6ccn(C)c(=O)c6)CC56CC6)N4C3=O)cc2c1 (stereo partly drawn) [Compound 406, propyl (((7-(((5S,8S,10aR)-3-acetyl-8-(6-(1-methyl-2-oxo-1,2-dihydro-pyridin-4-yl)-4-azaspiro[2.4]heptane-4-carbonyl)-6-oxodeca-hydropyrrolo [1,2-a] [1,5]diazocin-5-yl)carbamoyl)naphthalen-2-yl)fluoromethyl) (phenoxy)phosphoryl)-L-alaninate] | 6.00 to 7.00 | – | – |
| CCCOC(=O)[C@H](C)NP(=O)(Oc1ccccc1)C(F)c1ccc2ccc(C(=O)N[C@H]3CN(C(=O)c4cc(Cl)c5nc(C)ccc5c4)CC[C@H]4CC[C@@H](C(=O)N5CCOCC5)N4C3=O)cc2c1 (stereo partly drawn) [Compound 407, propyl (((7-(((5S,8S,10aR)-3-(8-chloro-2-methylquinoline-6-carbonyl)-8-(morpholine-4-carbonyl)-6-oxodeca-hydropyrrolo [1,2-a][1,5]diazocin-5-yl)carbamoyl)naphthalen-2-yl)fluoromethyl) (phenoxy)phosphoryl)-L-alaninate] | 5.52 to 6.00 | – | – |
| CCCOC(=O)[C@H](C)NP(=O)(Cc1ccc2ccc(C(=O)N[C@H]3CN(C(C)=O)CC[C@H]4CC[C@@H](C(=O)N5CC(c6ccn(C)c(=O)c6)CC56CC6)N4C3=O)cc2c1)Oc1ccccc1 (stereo partly drawn) [Compound 408, propyl (((7-(((5S,8S,10aR)-3-acetyl-8-(6-(1-methyl-2-oxo-1,2-dihydropyridin-4-yl)-4-azaspiro [2.4]heptane-4-carbonyl)-6-oxodeca-hydropyrrolo [1,2-a] [1,5]diazocin-5-yl)carbamoyl)naphthalen-2-yl)methyl) (phenoxy)phosphoryl)-L-alaninate] | 5.52 to 6.00 | – | – |
| CCCOC(=O)[C@H](C)NP(=O)(Oc1ccccc1)C(F)c1ccc2ccc(C(=O)N[C@H]3CN(C(C)=O)CC[C@H]4CC[C@@H](C(=O)N5CCC(c6cccnc6)C5)N4C3=O)cc2c1 (stereo partly drawn) [Compound 409, propyl (((7-(((5S,8S,10aR)-3-acetyl-6-oxo-8-(3-(pyridin-3-yl)pyrrolidine-1-carbonyl)decahydropyrrolo [1,2-a] [1,5]diazocin-5-yl)carbamoyl)naphthalen-2-yl)fluoromethyl) (phenoxy)phosphoryl)-L-alaninate] | 5.52 to 6.00 | – | – |
| CCCOC(=O)[C@H](C)NP(=O)(Oc1ccccc1)C(F)c1ccc2ccc(C(=O)N[C@H]3CN(C(=O)c4noc5ccc(C)cc45)CC[C@H]4CC[C@@H](C(=O)N5CCN(S(C)(=O)=O)CC5)N4C3=O)cc2c1 (stereo partly drawn) [Compound 410, propyl ((fluoro(7-(((5S,8S,10aR)-3-(5-methylbenzo [d]isoxazole-3-carbonyl)-8-(4-(methylsulfonyl)piperazine-1-carbonyl)-6-oxodeca-hydropyrrolo [1,2-a][1,5]diazocin-5-yl)carbamoyl)naphthalen-2-yl)methyl) (phenoxy)phosphoryl)-L-alaninate] | 6.00 to 7.00 | – | – |
| CCCOC(=O)[C@H](C)NP(=O)(Oc1ccccc1)C(F)c1ccc2ccc(C(=O)N[C@H]3CN(C(=O)c4noc5ccc(C)cc45)CC[C@H]4CC[C@@H](C(=O)N5CCN(c6nsc7ccccc67)CC5)N4C3=O)cc2c1 (stereo partly drawn) [Compound 411, propyl (((7-(((5S,8S,10aR)-8-(4-(benzo[d]isothiazol-3-yl)piperazine-1-carbonyl)-3-(5-methylbenzo [d]isoxazole-3-carbonyl)-6-oxodeca-hydropyrrolo [1,2-a][1,5]diazocin-5-yl)carbamoyl)naphthalen-2-yl)fluoromethyl) (phenoxy)phosphoryl)-L-alaninate] | < 5.52 | – | – |
| ((2-(((5S,8S,10aR)-3-acetyl-8-((rel-trans)-3-cyano-3-methyl-4-phenylpyrrolidine-1-carbonyl)-6-oxodecahydropyrrolo[1,2-a][1,5]diazocin-5-yl)carbamoyl)benzo[b]thiophen-5-yl)difluoromethyl)phosphonic acid [Compound 41] | – | 5.00 to 6.00 | ≥ 6.52 |
| ((2-(((5S,8S,10aR)-8-((3S,4R or 3R,4S)-3-cyano-4-phenylpyrrolidine-1-carbonyl)-3-(2,2-difluoroethyl)-6-oxodecahydropyrrolo[1,2-a][1,5]diazocin-5-yl)carbamoyl)benzo[b]thiophen-5-yl)difluoromethyl)phosphonic acid [Compound 249] | – | 6.00 to 7.00 | ≥ 6.52 |
